According to patent US7514562B2, “Urea derivatives and their use as vanilloid receptor antagonists in the treatment of pain” (Glaxo Group Limited, priority 2003, dated 2009):

Target: T1, human VR1 (Homo sapiens, UniProt Q8NER1)
T1 construct: expressed in transfected cells
Experiment: FLIPR based calcium assay, antagonism of capsaicin response in 1321N1 cells stably expressing human VR1
Type: cell-based
Details: transfected astrocytoma 1321N1 cells, 30 min pre-incubation, capsaicin challenge; pKb generated from IC50 using the Cheng-Prusoff equation
Procedure: The plates were then washed 4 times with Tyrode containing 1.5 mM calcium, without probenecid. […] Capsaicin (Sigma) was then added to the cells. Compounds having antagonist activity against the human VR1 were identified by detecting differences in fluorescence when measured after capsaicin addition, compared with no compound buffer controls.

T1 sequence (Q8NER1 whole entry): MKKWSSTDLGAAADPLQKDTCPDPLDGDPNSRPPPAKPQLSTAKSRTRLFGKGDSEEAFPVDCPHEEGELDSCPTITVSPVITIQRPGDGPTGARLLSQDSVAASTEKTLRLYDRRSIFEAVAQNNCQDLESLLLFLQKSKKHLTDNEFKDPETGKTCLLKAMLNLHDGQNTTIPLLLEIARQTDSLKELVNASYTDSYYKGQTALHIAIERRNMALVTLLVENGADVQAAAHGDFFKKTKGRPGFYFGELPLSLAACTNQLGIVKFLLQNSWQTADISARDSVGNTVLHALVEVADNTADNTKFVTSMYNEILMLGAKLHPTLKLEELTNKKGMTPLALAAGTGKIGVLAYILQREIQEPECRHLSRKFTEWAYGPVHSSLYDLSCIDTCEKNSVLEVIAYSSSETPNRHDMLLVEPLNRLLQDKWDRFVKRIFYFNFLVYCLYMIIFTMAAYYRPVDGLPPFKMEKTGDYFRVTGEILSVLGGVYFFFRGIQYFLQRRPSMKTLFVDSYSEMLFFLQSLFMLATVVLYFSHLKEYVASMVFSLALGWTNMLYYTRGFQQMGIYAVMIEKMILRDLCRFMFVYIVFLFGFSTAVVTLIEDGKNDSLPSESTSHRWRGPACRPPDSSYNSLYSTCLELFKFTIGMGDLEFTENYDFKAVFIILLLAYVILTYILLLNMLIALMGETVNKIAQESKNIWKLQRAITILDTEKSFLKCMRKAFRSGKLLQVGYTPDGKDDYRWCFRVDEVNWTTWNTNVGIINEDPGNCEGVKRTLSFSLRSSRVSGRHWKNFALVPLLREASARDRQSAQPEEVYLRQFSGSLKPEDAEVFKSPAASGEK

Kb: < 0.1 µM
Compound: Cc1cc2c(NC(=O)NC3CN(c4ccc(C(F)(F)F)cn4)C3)cccc2nn1 [Example 16]
